Data as given in the supplement of paper PMC5908809.

What was measured:
[1] = test system: normal NK cells expanded with K562-aAPC; test: percent inhibition of viability; higher = more inhibition; conditions: 72 h, IL-2 2.5 ng/mL
Description: (§1)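 Drug sensitivity and resistance testing on K562-aAPC-expanded normal NK cells: 5 concentrations (10-fold steps over a 10,000-fold range), 72 h at 37 °C, viability by CellTiter-Glo normalised to DMSO and benzethonium chloride controls; DSS from the fitted curve.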

[2] = test system: DERL-7 (IL-2 2.5 ng/mL); test: as above; conditions: 72 h
[3] = test system: IMC-1 (IL-2 20 ng/mL); test: as above; conditions: 72 h
[4] = test system: KAI3 (IL-2 2.5 ng/mL); test: as above; conditions: 72 h
[5] = test system: KHYG-1 (IL-2 2.5 ng/mL); test: as above; conditions: 72 h
[6] = test system: NK-92 (IL-2 2.5 ng/mL); test: as above; conditions: 72 h
[7] = test system: NK-YS (IL-2 2.5 ng/mL); test: as above; conditions: 72 h
[8] = test system: NKL (IL-2 2.5 ng/mL); test: as above; conditions: 72 h
[9] = test system: SNK-6 (IL-2 2.5 ng/mL); test: as above; conditions: 72 h
[10] = test system: YT (IL-2 2.5 ng/mL); test: as above; conditions: 72 h
[11] = test system: normal primary NK cells, pool 1 (3 donors) (IL-2 2.5 ng/mL); test: as above; conditions: 72 h
[12] = test system: normal primary NK cells, pool 1 (3 donors), resting (IL-2 0 ng/mL); test: as above; conditions: 72 h
[13] = test system: normal primary NK cells, pool 2 (3 donors) (IL-2 2.5 ng/mL); test: as above; conditions: 72 h
[14] = test system: normal primary NK cells, pool 3 (3 donors) (IL-2 2.5 ng/mL); test: as above; conditions: 72 h
[15] = test system: normal NK cells expanded with K562-aAPC; test: drug sensitivity score (DSS) (DSS units); higher = more sensitive; extreme values may be limits of the assay; conditions: 72 h; IL-2 2.5 ng/mL
Description: as §1

[16] = test system: DERL-7 (IL-2 2.5 ng/mL); test: as above; conditions: 72 h
[17] = test system: IMC-1 (IL-2 20 ng/mL); test: as above; conditions: 72 h
[18] = test system: KAI3 (IL-2 2.5 ng/mL); test: as above; conditions: 72 h
[19] = test system: KHYG-1 (IL-2 2.5 ng/mL); test: as above; conditions: 72 h
[20] = test system: NK-92 (IL-2 2.5 ng/mL); test: as above; conditions: 72 h
[21] = test system: NK-YS (IL-2 2.5 ng/mL); test: as above; conditions: 72 h
[22] = test system: NKL (IL-2 2.5 ng/mL); test: as above; conditions: 72 h
[23] = test system: SNK-6 (IL-2 2.5 ng/mL); test: as above; conditions: 72 h
[24] = test system: YT (IL-2 2.5 ng/mL); test: as above; conditions: 72 h
[25] = test system: normal primary NK cells, pool 1 (3 donors) (IL-2 2.5 ng/mL); test: as above; conditions: 72 h
[26] = test system: normal primary NK cells, pool 1 (3 donors), resting (IL-2 0 ng/mL); test: as above; conditions: 72 h
[27] = test system: normal primary NK cells, pool 2 (3 donors) (IL-2 2.5 ng/mL); test: as above; conditions: 72 h
[28] = test system: normal primary NK cells, pool 3 (3 donors) (IL-2 2.5 ng/mL); test: as above; conditions: 72 h

CS(=O)(=O)CCNCc1ccc(-c2ccc3ncnc(Nc4ccc(OCc5cccc(F)c5)c(Cl)c4)c3c2)o1 [Lapatinib] (max concentration tested 1000 nM)
percent inhibition of viability [%]
Conditions	0.1 nM	1 nM	10 nM	100 nM	1000 nM
[1]	-5.72	-9.28	-7.55	-4.36	-0.7
[2]	4.2	1.17	2.53	-0.89	9.64
[3]	-4.47	-0.19	-1	2.17	9.49
[4]	-4.84	-7.01	-5.48	-1.85	11.8
[5]	-0.63	-4.12	-1.74	0.27	9.49
[6]	-9.88	-2.81	5.1	30.6	28.1
[7]	-7.32	-8.47	-3.59	-5.11	5.83
[8]	-3.26	-0.98	3.19	8.28	14.2
[9]	-20.3	-7.47	-17	-15.2	-16.8
[10]	-1.2	-2.12	-1.08	6.88	14.2
[11]	-9.91	11.7	10.2	12.6	4.9
[12]	-12	4	-0.24	6.97	30.1
[13]	-7.46	8.95	4.77	1.81	4
[14]	-12.2	9.92	7.91	-3.46	-0.3

Conditions	drug sensitivity score
[15]	0
[16]	0
[17]	0
[18]	0.01
[19]	0
[20]	6.01
[21]	0
[22]	0.4
[23]	0
[24]	0.63
[25]	1.89
[26]	2.38
[27]	0
[28]	0

CN(C)C/C=C/C(=O)Nc1cc2c(Nc3ccc(F)c(Cl)c3)ncnc2cc1O[C@H]1CCOC1 [Afatinib] (max concentration tested 1000 nM)
percent inhibition of viability [%]
Conditions	0.1 nM	1 nM	10 nM	100 nM	1000 nM
[1]	-3.84	-0.9	0.35	8.86	23.9
[2]	1.24	-0.84	3.12	3.53	40.4
[3]	-4.64	0.23	3.73	0.77	-7.53
[4]	-6.04	-6.37	-2.67	-0.11	17.7
[5]	1.25	0.47	0.09	5.88	8.01
[6]	-4.74	-8.88	-4.7	6.1	20
[7]	-6.74	-1.03	-0.59	1.9	17.9
[8]	4.2	5.29	8.09	15.9	30.1
[9]	5.26	23.4	23.4	27.9	-1.27
[10]	0.42	0.78	2.66	5.09	29.2
[11]	0.9	-20.4	-8.14	-16.9	17.6
[12]	1.52	-21.3	-1.76	-18.2	31.8
[13]	-9.45	-8.4	7.17	-5.73	18.4
[14]	-7.17	-9.3	9.58	-8.16	3.09

Conditions	drug sensitivity score
[15]	1.97
[16]	2.57
[17]	0
[18]	0.41
[19]	0
[20]	1.32
[21]	0.66
[22]	3.07
[23]	0
[24]	2.06
[25]	0.16
[26]	0.88
[27]	0.29
[28]	0
